Data from paper PMC2649009 (Journal of medicinal chemistry, 2008).
Values joined by “and” are separate entries in the source; they are usually repeats but may differ in a detail not shown here. Identical values can stand only once.

Biological target: T1, human GVIA iPLA2 (Homo sapiens, UniProt O60733)
T1 sequence (O60733 1-806): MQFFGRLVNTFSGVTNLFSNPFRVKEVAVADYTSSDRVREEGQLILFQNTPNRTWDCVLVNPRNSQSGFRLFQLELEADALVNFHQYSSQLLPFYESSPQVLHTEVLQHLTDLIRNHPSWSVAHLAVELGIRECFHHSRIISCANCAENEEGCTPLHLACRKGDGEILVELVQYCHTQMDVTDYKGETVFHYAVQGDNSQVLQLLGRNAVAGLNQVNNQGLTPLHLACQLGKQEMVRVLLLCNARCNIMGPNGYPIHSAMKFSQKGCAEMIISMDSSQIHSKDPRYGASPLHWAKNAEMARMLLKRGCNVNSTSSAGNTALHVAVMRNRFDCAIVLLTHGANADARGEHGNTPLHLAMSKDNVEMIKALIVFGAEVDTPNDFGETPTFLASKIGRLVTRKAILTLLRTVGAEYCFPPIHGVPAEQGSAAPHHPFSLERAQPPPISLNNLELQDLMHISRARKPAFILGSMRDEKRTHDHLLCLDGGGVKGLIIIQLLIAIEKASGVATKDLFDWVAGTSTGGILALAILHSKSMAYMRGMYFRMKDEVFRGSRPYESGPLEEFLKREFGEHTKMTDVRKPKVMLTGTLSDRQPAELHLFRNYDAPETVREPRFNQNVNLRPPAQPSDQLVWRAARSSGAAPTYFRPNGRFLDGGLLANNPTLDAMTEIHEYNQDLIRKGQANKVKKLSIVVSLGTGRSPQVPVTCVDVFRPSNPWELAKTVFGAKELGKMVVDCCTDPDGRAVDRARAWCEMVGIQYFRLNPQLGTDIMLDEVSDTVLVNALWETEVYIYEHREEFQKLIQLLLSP
Experiment: mixed micelle-based modified Dole assay, GVIA iPLA2 inhibition
Assay type: biochemical
Conditions: for GVIA iPLA2 XI(50): mole fraction of inhibitor in total substrate interface giving 50% inhibition

| SMILES | GVIA iPLA2 XI(50) | potency as inhibitor of GVIA iPLA2 relative to trifluoro derivative 6 (ratio of XI(50) values, 26 vs 6) |
| --- | --- | --- |
| O=C(CCCCc1ccccc1)C(F)(F)C(F)(F)F [10a, 1,1,1,2,2-Pentafluoro-7-phenyl-heptan-3-one] | 0.0073 mole fraction and 0.0073 ± 0.0007 mole fraction |  |
| O=C(CCCCCc1ccccc1)C(F)(F)C(F)(F)F [10b, 1,1,1,2,2-Pentafluoro-8-phenyl-octan-3-one] | 0.0065 mole fraction |  |
| O=C(CCCCCCc1ccccc1)C(F)(F)C(F)(F)F [10c, 1,1,1,2,2-Pentafluoro-9-phenyl-nonan-3-one] | 0.0065 mole fraction |  |
| O=C(CCCCCc1ccccc1)C(F)(F)F [12a, 1,1,1-Trifluoro-7-phenylheptan-2-one] | 0.0025 mole fraction |  |
| O=C(CCCCCCc1ccccc1)C(F)(F)F [12b, 1,1,1-Trifluoro-8-phenyloctan-2-one] | 0.0018 mole fraction |  |
| CCCCCCOc1ccc(CCC(=O)C(F)(F)F)cc1 [19a, 1,1,1-Trifluoro-4-(4-hexyloxy-phenyl)-butan-2-one] | 0.0328 ±0.0035 mole fraction |  |
| CCCCCCCCCCCCCCCC(=O)C(F)(F)F [compound 6, palmitoyl trifluoromethyl ketone, reference compound] | 0.0195 mole fraction |  |
| CCCCCCOc1ccc(CCC(=O)C(F)(F)C(F)(F)F)cc1 [compound 21, 1,1,1,2,2-Pentafluoro-5-(4-hexyloxy-phenyl)-pentan-3-one] | 0.0075 mole fraction |  |
| CCCCCCCCCCCCCCC(F)C(=O)C(F)(F)F (stereo not shown) [compound 26, 1,1,1,3-Tetrafluoro-heptadecan-2-one] | 0.0011 mole fraction | approximately twenty-fold |
